Reference: patent publication US12286437B2, “Cardiac sarcomere inhibitors” (Cytokinetics, Inc., priority 2021, dated 2025)

Columns and labels:
[1] = system: bovine cardiac myofibrils; experiment: Myofibril assay (ATPase activity of skinned bovine cardiac myofibrils, PK/LDH-coupled); assay type: biochemical; conditions: inhibition of steady-state ATPase of bovine cardiac myofibrils; CaCl2 for 50% or 75% activation
Procedure: To evaluate the effect of compounds on the ATPase activity of full-length cardiac myosin in the context of the native sarcomere, skinned myofibril assays were performed. Bovine cardiac myofibrils were obtained by homogenizing bovine cardiac left ventricular tissue in the presence of a detergent such as triton X-100. Such treatment removes membranes and a majority of the soluble cytoplasmic proteins but leaves intact the cardiac sarcomeric acto-myosin apparatus. Myofibril preparations retain the ability to hydrolyze ATP in a Ca^2+ regulated manner. ATPase activities of such myofibril preparations in the presence and absence of compounds were assayed at Ca^2+ concentrations activating to a defined fraction of the maximal rate (i.e., […], 75%). Small molecule agents were assessed for their ability to inhibit the steady-state ATPase activity of bovine cardiac myofibrils using pyruvate kinase and lactate dehydrogenase (PK/LDH)-coupled enzyme system. This assay regenerates myosin-produced ADP into ATP by oxidizing NADH, producing an absorbance change at 340 nm. Prior to testing small molecule agents, the bovine cardiac myofibrils were assessed for their calcium responsiveness and the calcium concentration that achieves either a 50% (pCa50) or 75% (pCa75) activation of the myofibril system was chosen as the final condition for assessing the inhibitory activity of the small molecule agents. All enzymatic activity was measured in a buffered solution containing 12 mM PIPES (piperazine-N,N′-bis(2-ethanesulfonic acid), 2 mM magnesium chloride at pH 6.8 (PM 12 buffer). Final assay conditions were 1 mg/mL of bovine cardiac myofibrils, 4 U/mL pyruvate kinase, 6 U/mL lactate dehydrogenase, 50 μM ATP, 0.1 mg/mL BSA (bovine serum albumin), 10 ppm antifoam, 1 mM DTT, 0.5 mM NADH, 1.5 mM PEP, 0.6 mM EGTA, and an amount of CaCl2 sufficient to achieve either 50% or 75% activation of the myofibril ATPase activity. Results for compounds tested are provided in Table A. Compounds tested were prepared in accordance with the synthetic procedures described herein.

[2] = Projected single-dose CL and Vss values in humans (allometric scaling of mouse, rat, dog, monkey IV PK); conditions: human, projected by allometric scaling from single-dose IV PK
Procedure: Allometric scaling for the prediction of human Clearance and Volume of Distribution was based on interspecies simple allometric scaling of mouse, rat, dog, and cynomolgus monkey intravenous pharmacokinetic parameters (Boxenbaum, J Pharmacokinet Biopharm 10:201-27, 1982). Prediction of human CL was performed by extrapolating pre-clinical species' plasma intravenous clearance. The ‘rule of exponents’ (Mahmood & Balian, Life Sci 59:579-85, 1996) was examined in this prediction, where it has been proposed that, when the exponent of simple allometry lies between […] and 0.99, a correction factor based on Maximum Life Span (MLP) of this species can be applied and, when the exponent of simple allometry is greater than 1.0, a correction factor based on Brain Weight (BrW) can be applied, or a protein binding correction can be applied when available. In a similar manner, simple allometric scaling was employed to predict human Volume of Distribution. This method has been used successfully for varied drugs (Ward & Smith, Drug Metab Dispos 32:612-19, 2004; McGinnity et al., Curr Drug Metab 8:463-79, 2007).

[3] = Dog single dose pharmacokinetics; assay type: in vivo, beagle dogs; conditions: male, beagle, plasma, IV, read-out: t½ (converted)
Procedure: Non-naïve male beagle dogs (8 months-3 years of age, body weight 8-13 kg) were used in this study. All animals for IV administration had free access to food and water; all animals for PO were fasted overnight prior to dosing and were fed approximately 6 hours after dosing. For the animals in PO group, pentagastrin (6.0 μg/kg, i.m.) was administrated 20 minutes before dosing PO formulation and 1.5 hours after the first pentagastrin dosing. The dosing volume was 0.024 mL/kg, the concentration was 250 μg/mL in DMSO/1 N NaOH/PBS. 10 mL of 0.001 N HCl was used to wash the gavage catheter for each animal. The IV dose solution was prepared in 10% DMA/50% PG/40% HPβCD solution (40% w/v aqueous HPβCD) at a concentration of 1.0 mg/mL. The oral dose suspension was prepared by suspending the compound in 0.5% HPMC/0.1% Tween 80 in distilled water at a concentration of 0.2 mg/mL. Concentrations of IV and PO doses were measured at the end of the study. PK parameters were calculated using the nominal dose values if the measured values were within 20% of the nominal values. Blood samples were collected by venipuncture of peripheral veins except the dosing vein at pre-dose, 5 15, 30 min, 1, 2, 4, 6, 8, 24 and 48 h post-dose. Blood samples were centrifuged and resultant plasma was frozen for bioanalysis. Plasma samples were stored at −80° C. before analysis. Plasma samples were analyzed for compound concentrations using the LC/MS/MS method. Briefly, a 50 μL aliquot of each plasma sample was mixed with 100 μL of acetonitrile that contained an internal standard. The mixture was vortexed and centrifuged. Ten (10) μL of the resulting solution was injected onto a reverse-phase C18 column and the resultant peaks detected on a LC/MS/MS equipped with a turbo ionspray ionization source. Sample concentrations below the limit of quantification (BLQ) were treated as zero for PK calculations. PK parameters were estimated from individual animals using noncompartmental analysis of the concentration-time data (Phoenix WinNonLin software, version 64; Pharsight, Mountain View, CA). The elimination rate constant (k) was calculated as the absolute value of the slope of the linear regression of logarithm (log) of the concentration versus time for the last three data points of the concentration-time profiles. Apparent elimination half-life (t1/2) values were calculated as ln(2)/k. Area under the concentration-time curve (AUC) values were estimated using linear trapezoidal method. AUCt values were calculated from the dosing time to the last measurable concentration. AUC∞ values were calculated as the sum of the corresponding AUCt and the ratio of the last detectable concentration divided by k. Plasma clearance (CL) was calculated from Dose/AUC∞. Mean resident time extrapolated to infinity (MRT∞) was estimated by moment analysis. Vss was calculated from MRT∞×CL. Maximum concentration (Cmax) and time to reach Cmax (tmax) were recorded as observed. As this was a cross-over study, bioavailability was calculated dAUC∞,po/dAUC∞,iv×100% where dAUC was the dose normalized AUC value from the same animal given IV and PO dose. Data for compounds tested are provided in Table D. Compounds tested were prepared in accordance with the synthetic procedures described herein.

CYP3A4 = biological target: T1, CYP3A4 (Homo sapiens, UniProt P08684); experiment: Time-dependent inhibition of CYP3A4 in human liver microsomes (testosterone and midazolam probes); assay type: in vitro ADME; conditions: for (% Activity NADPH T0)/(% Activity NADPH T30): fold change
T1 construct: Pooled human microsomes and selective CYP probe substrates were used; from tissue; host or cells: pooled human liver microsomes
Procedure: An assessment of the time-dependent Inhibitory Potential of the test compounds against Principal Human Cytochrome P450 Isozymes using Human Liver Microsomes was also carried out using standard methods (Grimm et al, Drug Metab. Dispos., July; 37(7):1355-70. doi: 10.1124/dmd.109.026716, 2009). Pooled human microsomes and selective CYP probe substrates were used for in vitro assessment of test compounds at 25 and 50 μM as time-dependent inhibitors of […] human hepatic cytochrome P450 isozymes (CYP1A2, 2B6, 2C9, 2C19, 2D6, and 3A4). LC-MS/MS was used to quantify metabolite formation. The inhibition of each P450 enzyme in human liver microsomes was measured as the percentage decrease in the activity of marker metabolite formation as measured by LC-MS/MS compared to non-inhibited controls (=100% activity) at time zero and after 30 minutes incubation. The occurrence of any time dependent inhibition was then expressed as the fold change in enzyme activity at time zero relative to the activity after 30 minutes incubation.

T1 sequence (P08684 whole entry): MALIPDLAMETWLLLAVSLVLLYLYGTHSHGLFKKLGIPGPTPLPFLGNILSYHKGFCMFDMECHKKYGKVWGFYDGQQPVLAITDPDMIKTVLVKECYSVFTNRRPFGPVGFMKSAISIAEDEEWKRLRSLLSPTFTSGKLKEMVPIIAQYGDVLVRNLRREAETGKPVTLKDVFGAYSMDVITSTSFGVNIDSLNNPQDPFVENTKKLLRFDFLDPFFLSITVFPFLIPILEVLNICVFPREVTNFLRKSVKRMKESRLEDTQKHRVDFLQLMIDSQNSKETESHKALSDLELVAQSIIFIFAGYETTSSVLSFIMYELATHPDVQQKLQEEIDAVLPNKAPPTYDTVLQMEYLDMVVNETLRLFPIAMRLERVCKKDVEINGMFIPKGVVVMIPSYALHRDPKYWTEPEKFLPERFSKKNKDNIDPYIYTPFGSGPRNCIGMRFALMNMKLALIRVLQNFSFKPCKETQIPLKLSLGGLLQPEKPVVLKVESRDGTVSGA

CDMF IC15 [1] [nM] | Projected CL [2] [mL/min/kg] | Projected Vss [2] [L/kg] | Projected t½ [2] [h] | half-life [3] [h] | (% Activity NADPH T0)/(% Activity NADPH T30) (CYP3A4; CYP3A4-M (midazolam probe substrate), 25 μM) | (% Activity NADPH T0)/(% Activity NADPH T30) (CYP3A4; CYP3A4-M (midazolam probe substrate), 50 μM) | (% Activity NADPH T0)/(% Activity NADPH T30) (CYP3A4; CYP3A4-T (testosterone probe substrate), 25 μM) | (% Activity NADPH T0)/(% Activity NADPH T30) (CYP3A4; CYP3A4-T (testosterone probe substrate), 50 μM) | change in fold activity of 3A4 (time dependent inhibition) (CYP3A4; both midazolam and testosterone probes, 25 and 50 μM) [fold] | SMILES
1300 | 1.2 | 5.5 | 51.7 | 33.1 |  |  |  |  |  | O=CN1CC2(C1)C(=O)N([C@H]1CC[C@H](C(F)F)CC1)CC(=O)N2Cc1ccc(C(F)(F)F)cc1 [Comparator E, 8-((1r,4r)-4-(difluoromethyl)cyclohexyl)-6,9-dioxo-5-(4-(trifluoromethyl)benzyl)-2,5,8-triazaspiro[3.5]nonane-2-carbaldehyde]
1100 | 0.96 | 5.16 | 62 | 23.7 |  |  |  |  |  | CC(=O)N1CC2(C1)C(=O)N(c1ccc(C#N)cc1F)CC(=O)N2Cc1ccc(C(F)(F)F)cc1 [Comparator D, 4-(2-acetyl-6,9-dioxo-5-(4-(trifluoromethyl)benzyl)-2,5,8-triazaspiro[3.5]nonan-8-yl)-3-fluorobenzonitrile]
1100 | 3.9 | 13.9 | 41 | 14.7 | 1.6 | 1.7 | 1.8 | 1.8 | > 1.5 | O=C1[C@H](C2COC2)N(Cc2ccc(C(F)(F)F)cc2)C(=O)CN1c1ncc(Cl)cc1F [Comparator C, (S)-1-(5-chloro-3-fluoropyridin-2-yl)-3-(oxetan-3-yl)-4-(4-(trifluoromethyl)benzyl)piperazine-2,5-dione, reference compound]
1800 | 1.44 |  | 38.7 | 39.2 |  |  |  |  |  | O=CN1CC2(C1)C(=O)N(c1ccc(F)cc1F)CC(=O)N2Cc1ccc(Cl)cc1 [Comparator A, 5-(4-chlorobenzyl)-8-(2,4-difluorophenyl)-6,9-dioxo-2,5,8-triazaspiro[3.5]nonane-2-carbaldehyde, reference compound]
